Measurements taken from patent US4057545A, “Imidazole derivatives” (Nordmark-Werke GmbH Hamburg, priority 1975, dated 1977).

Tests used:
[1] = LD50 (mice); details: mouse, in vivo
[2] = system: Candida albicans; test: oral effectiveness in Candida-infected mice (survival); assay type: in vivo; details: 100 mg/kg twice daily for 7 days
Description: Accordingly, the compounds according to the invention are particularly suitable for the oral treatment of generalized infections by fungi and yeasts in human and veterinary medicine. Since the hitherto available medicaments are not yet satisfactory (Lit.: Infection 2, (1974) 95-107), they represent a valuable addition to pharmacology. In addition, they may be used equally effectively for the local treatment of surface infections and for the treatment of infections of the mucosa excessible to local treatment. Typical diseases of thiskind, for the treatment of which the compounds of the present invention are particular useful, are for instance generalized candidoses, candidoses of the lungs, of the skin or of the genitals or generalized trichophytoses (tineas) or trichophytoses of the skin, of the nails or of the hair.
In order to determine the oral effectiveness of the compounds, groups of 10 mice each weighing approximately 20 g were each treated i.m for 2 days with 50 mg/kg of hydrocortisone to ensure effective development of the infection. The mice were then each infected i.v. with 500,000 Candida albicans germs and thereafter were treated twice daily for 7 days with 100 mg/kg of the substance to be tested. In addition to an infected, but untreated control group, one group was treated with the reference substance Miconazole for comparison.

[3] = mice; literature value; cited from earlier work
[4] = system: Candida albicans; test: series dilution test in vitro, Cand. alb.; assay type: cell-based; set-up: key: .phi.: complete inhibition; (+): strong inhibition; +: moderate inhibition; ++: slight inhibition; +++: no inhibition; details: for inhibition of Cand. alb., 1st value: dilution 1: 10,000; for inhibition of Cand. alb., 2nd value: dilution 1: 100,000
Description: (§1) The new compounds and their salts are valuable agents for controlling fungi and yeasts and, in addition, are also active against several types of bacteria. To test the antimicrobial activity of the new compounds in vitro, they were tested in a series dilution test with dilutions of from 1:10,000 to 1:100,000 for their effectiveness against the germs Staphylococcus aureus, Trichophyton mentagrophytes and Candida albicans.

[5] = system: Trichophyton mentagrophytes; test: series dilution test in vitro, Trichoph.; assay type: cell-based; set-up: key: .phi.: complete inhibition; (+): strong inhibition; +: moderate inhibition; ++: slight inhibition; +++: no inhibition; details: for inhibition of Trichoph., 1st value: dilution 1: 10,000; for inhibition of Trichoph., 2nd value: dilution 1: 100,000
Description: as §1

[6] = system: Staphylococcus aureus; test: series dilution test in vitro, Staph. aur.; assay type: cell-based; set-up: key: .phi.: complete inhibition; (+): strong inhibition; +: moderate inhibition; ++: slight inhibition; +++: no inhibition; details: for inhibition of Staph. aur., 1st value: dilution 1: 10,000; for inhibition of Staph. aur., 2nd value: dilution 1: 100,000
Description: as §1

Compound	LD50 [1] [mg/kg]	animals still alive on the last day of the treatment [2] [%]	LD50 (Lit.) [3] [mg/kg]	inhibition of Cand. alb., 1st value [4]	inhibition of Cand. alb., 2nd value [4]	inhibition of Trichoph., 1st value [5]	inhibition of Trichoph., 2nd value [5]	inhibition of Staph. aur., 1st value [6]	inhibition of Staph. aur., 2nd value [6]
Clc1ccc(C(=Cc2ccc(Cl)cc2Cl)Cn2ccnc2)cc1 [A, 1-(2,4-dichlorophenyl)-2-(4-chlorophenyl)-3-(imidazolyl-1)-propene-1-nitrate]	~1000								
Clc1ccc(C=C(Cn2ccnc2)c2ccc(Cl)cc2)cc1 [B, 1-(4-chlorophenyl)-2-(4-chlorophenyl)-3-(imidazolyl-1)-propene-1-nitrate]	~1000								
Clc1ccc(C(=Cc2ccccc2)Cn2ccnc2)cc1 [C, 1-phenyl-2-(4-chlorophenyl)-3-(imidazolyl-1)-propene-1-nitrate]	~1000								
Clc1ccc(C=C(Cn2ccnc2)c2ccccc2)c(Cl)c1 [D, 1-(2,4-dichlorophenyl)-2-phenyl-3-(imidazolyl-1)-propene-1-nitrate]	~1000								
Clc1ccc(C=C(Cn2ccnc2)c2ccc(Cl)cc2Cl)c(Cl)c1 [E, 1,2-bis-(2,4-dichlorophenyl)-3-(imidazolyl-1)-propene-1-nitrate]	~2000								
Clc1ccc(C=C(Cn2ccnc2)c2ccc(Cl)cc2Cl)cc1 [F, 1-(4-chlorophenyl)-2-(2,4-dichlorophenyl)-3-(imidazolyl-1)-propene-1-nitrate]	~2000								
Clc1ccc(C(=Cc2ccc(Br)cc2)Cn2ccnc2)c(Cl)c1 [G, 1-(4-bromophenyl)-2-(2,4-dichlorophenyl)-3-(imidazolyl-1)-propene-1-nitrate]	~1000								
Clc1ccc(COC(Cn2ccnc2)c2ccc(Cl)cc2Cl)c(Cl)c1 (stereo not drawn) [Miconazole, 1-[2,4-dichloro-β-(2,4,-dichlorobenzyloxy)-phenethyl]-imidazole nitrate]		20	578						
Brc1ccc(C=C(Cn2ccnc2)c2ccc(Br)cc2)cc1 [n=0, R1=4-Br, R2=H, R3=4-Br, R4=H]				.phi.	++	.phi.	.phi.	.phi.	.phi.
Cc1ccc(C(=Cc2ccc(Cl)cc2Cl)Cn2ccnc2)cc1 [n=0, R1=4-CH3, R2=H, R3=2-Cl, R4=4-Cl]				.phi.	(+)	.phi.	.phi.	.phi.	.phi.
Clc1ccc(C(=Cc2ccc(Br)cc2)Cn2ccnc2)c(Cl)c1 [n=0, R1=4-Cl, R2=2-Cl, R3=4-Br, R4=H]				.phi.	++	.phi.	.phi.	.phi.	.phi.
Clc1ccc(C(=Cc2ccc(Cl)c(Cl)c2)Cn2ccnc2)c(Cl)c1 [n=0, R1=4-Cl, R2=2-Cl, R3=4-Cl, R4=3-Cl]				.phi.	++	.phi.	.phi.	.phi.	.phi.
Clc1ccc(C(=Cc2ccc(Br)cc2)Cn2ccnc2)cc1 [n=0, R1=4-Cl, R2=H, R3=4-Br, R4=H]				.phi.	++	.phi.	.phi.	.phi.	.phi.
Clc1ccc(C=C(Cn2ccnc2)c2ccc(Cl)cc2)cc1 [n=0, R1=4-Cl, R2=H, R3=4-Cl, R4=H]				.phi.	(+ )	.phi.	.phi.	.phi.	.phi.
COc1ccc(C(=Cc2ccccc2)Cn2ccnc2)cc1 [n=0, R1=H, R2=4-OCH3, R3=H, R4=H]				.phi.	+++	.phi.	.phi.	.phi.	.phi.
Clc1ccc(C=C2c3cc(Cl)ccc3CC2n2ccnc2)c(Cl)c1 (stereo not drawn) [n=1, R1=6-Cl, R2=H, R3=4-Cl, R4=2-Cl]				.phi.	+++	.phi.	.phi.	.phi.	.phi.
Clc1ccc(C=C2c3cc(Cl)ccc3CC2n2ccnc2)cc1 (stereo not drawn) [n=1, R1=6-Cl, R2=H, R3=4-Cl, R4=H]				.phi.	++	.phi.	.phi.	.phi.	.phi.
Clc1ccc(C=C2c3ccccc3CC2n2ccnc2)cc1Cl (stereo not drawn) [n=1, R1=H, R2=H, R3=3-Cl, R4=4-Cl]				.phi.	++	.phi.	.phi.	.phi.	.phi.
Clc1ccc(C=C2c3ccccc3CC2n2ccnc2)cc1 (stereo not drawn) [n=1, R1=H, R2=H, R3=H, R4=4-Cl]				.phi.	++	.phi.	.phi.	.phi.	.phi.
Clc1ccc(C=C2c3ccccc3CCC2n2ccnc2)cc1 (stereo not drawn) [n=2, R1=H, R2=H, R3=H, R4=4-Cl]				.phi.	++	.phi.	.phi.	.phi.	.phi.
C(=C1c2ccccc2CCC1n1ccnc1)c1ccccc1 (stereo not drawn) [n=2, R1=H, R2=H, R3=H, R4=H]				.phi.	+++	.phi.	.phi.	.phi.	.phi.
